Data taken from PubChem BioAssay (NCI).
Where “and” joins values, the source holds several entries; their conditions need not be identical. Identical values can stand only once.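 Cells were grown in 96-well plates and exposed to each compound for 48 hours at five concentrations; endpoints were interpolated linearly between bracketing concentrations, or set to the highest concentration if not reached. Abbreviation: GI50, concentration required for 50% inhibition of growth. TGI is the concentration that stops growth completely.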

Legend:
Test in all cases: DTP human tumour cell line panel, 48 h
[1] = tested on: MDA-MB-231 breast
[2] = tested on: UACC-62 melanoma
[3] = tested on: MDA-MB-435
[4] = tested on: IGROV1 ovarian
[5] = tested on: HOP-62 NSCLC
[6] = tested on: HL-60(TB) leukemia
[7] = tested on: HT29 colon
[8] = tested on: K-562 leukemia
[9] = tested on: ACHN renal
[10] = tested on: UO-31 renal

OCC(O)c1nc2ccc3[nH]ncc3c2c2c1CCCC2 (stereo not drawn)
GI50 [1]: 1.75 µM
TGI [1]: > 50 µM
GI50 [2]: 0.96 µM
TGI [2]: 2.73 µM
GI50 [3]: 1.42 µM
TGI [3]: 4.31 µM
GI50 [4]: 1.38 µM
TGI [4]: > 50 µM
GI50 [5]: 1.53 µM
TGI [5]: > 50 µM
GI50 [6]: 1.24 µM
TGI [6]: 3.14 µM
GI50 [7]: 1.27 µM
TGI [7]: > 50 µM
GI50 [8]: 1.91 µM
TGI [8]: > 50 µM
GI50 [9]: 1.13 µM
TGI [9]: > 50 µM
GI50 [10]: 1.55 µM
TGI [10]: > 50 µM

Cc1cc(C)c(NC(=S)NC(=O)c2ccccc2)cc1C
TGI [1]: > 100 µM
TGI [2]: > 100 µM
TGI [3]: > 100 µM
TGI [4]: > 100 µM
TGI [5]: > 100 µM
TGI [6]: > 100 µM
TGI [7]: > 100 µM
TGI [8]: > 100 µM
TGI [9]: > 100 µM
TGI [10]: > 100 µM

CN(Cc1cc(Cl)cc(Cl)c1)CC(C(=O)c1ccccc1)c1ccccc1 (stereo not drawn)
TGI [1]: 23.5 µM
TGI [2]: 14.3 µM
TGI [3]: 16 µM
TGI [4]: > 58.3 µM
TGI [5]: 71.3 µM
TGI [6]: 47.4 µM
TGI [7]: 7.91 µM
TGI [8]: > 100 µM
TGI [9]: 2.16 µM
TGI [10]: 19.9 µM

COc1ccc(OC)c2c1[nH]c(=O)c1c3ncccc3cn21
GI50 [1]: 4.87 µM
TGI [1]: > 100 µM
GI50 [2]: 4.43 µM
TGI [2]: > 100 µM
GI50 [3]: 3.85 µM
TGI [3]: > 100 µM
GI50 [4]: 3.21 µM
TGI [4]: > 100 µM
GI50 [5]: 3.22 µM
TGI [5]: > 100 µM
GI50 [6]: 3.13 µM
TGI [6]: > 100 µM
GI50 [7]: 1.49 µM
TGI [7]: 4.34 µM
GI50 [8]: 3.62 µM
TGI [8]: > 100 µM
GI50 [9]: 2.03 µM
TGI [9]: > 100 µM
GI50 [10]: 2.49 µM
TGI [10]: > 100 µM

O=C1/C(=C\c2ccccn2)c2ccccc2N1c1c(Cl)cccc1Cl
GI50 [1]: 2.17 µM
TGI [1]: 5.74 µM
GI50 [2]: 1.62 µM
TGI [2]: 3.68 µM
GI50 [3]: 1.93 µM
TGI [3]: 5.03 µM
GI50 [4]: 2.26 µM
TGI [4]: 6.92 µM
GI50 [5]: 2.07 µM
TGI [5]: 5.04 µM
GI50 [6]: 3.75 µM
TGI [6]: > 29.6 µM
GI50 [7]: 2.53 µM
TGI [7]: 5.75 µM
GI50 [8]: 3.89 µM
TGI [8]: > 100 µM
GI50 [9]: 1.82 µM
TGI [9]: 3.91 µM
GI50 [10]: 1.47 µM
TGI [10]: 3.11 µM

COc1cc(Nc2nc3ccccc3cc2C(=O)Nc2ccc(F)c(F)c2)cc(OC)c1OC
GI50 [1]: 2.06 µM
TGI [1]: 5.69 µM
GI50 [2]: 1.68 µM
TGI [2]: 4.46 µM
GI50 [3]: 2.19 µM
TGI [3]: 5.17 µM
GI50 [4]: 4.08 µM
TGI [4]: > 100 µM
GI50 [5]: 2.73 µM
TGI [5]: 12.2 µM
GI50 [6]: 2.43 µM
TGI [6]: 7.14 µM
GI50 [7]: 3.59 µM
TGI [7]: > 100 µM
GI50 [8]: 3.31 µM
TGI [8]: > 100 µM
GI50 [9]: 2.51 µM
TGI [9]: 7.59 µM
GI50 [10]: 2.51 µM
TGI [10]: 9.35 µM

O=c1c(Cl)c(Cl)c(=O)c2sc3cc(Cl)ccc3[nH]c1=2
TGI [1]: 7.71 µM
TGI [2]: > 100 µM
TGI [3]: > 100 µM
TGI [4]: > 100 µM
TGI [5]: > 100 µM
TGI [6]: 23.7 µM
TGI [7]: > 100 µM
TGI [8]: 34.6 µM
TGI [9]: > 100 µM
TGI [10]: 36 µM

Cc1sc2c(c1C)C(c1ccc(Cl)cc1)=N[C@@H](CC(=O)OC(C)(C)C)c1nnc(C)n1-2
GI50 [1]: 0.714 µM and 0.304 µM
TGI [1]: 26 µM and 18.5 µM
GI50 [2]: 0.107 µM and 0.0685 µM
TGI [2]: 20.3 µM and 15.8 µM
GI50 [3]: 0.348 µM and 0.135 µM
TGI [3]: 20.3 µM and 17 µM
GI50 [4]: 0.808 µM and 0.645 µM
TGI [4]: 25 µM and 18.9 µM
GI50 [5]: 0.253 µM and 0.121 µM
TGI [5]: 17.1 µM and 16.4 µM
GI50 [6]: 0.118 µM and 0.0301 µM
GI50 [7]: 0.209 µM and 0.0986 µM
TGI [7]: 14.9 µM
TGI [8]: 37.5 µM and 15.7 µM
GI50 [9]: 0.67 µM and 0.496 µM
TGI [9]: 18.3 µM and 15.8 µM
GI50 [10]: 0.0634 µM and 0.0301 µM
TGI [10]: 13.8 µM and 14.2 µM
